# Marks after values point to notes of the source that are not given here.
# Assays:
# human H-460 lung tumors = assay: Subcutaneously implanted human H-460 lung tumor mouse xenograft (Example 1); format: in vivo; settings: for Mean Tumor Weight at Necropsy: day 32
# From the text: Immuno-compromised athymic CD-1 nu/nu nude mice males (5-6 weeks old) were used in this study (Charles River Laboratories, Wilmington, Mass.). Animals were maintained in a HEPA-filtered environment during the experimental period. Cages, food, and bedding were autoclaved. Animal diets were obtained from Harlan Teklad (Madison, Wis.). […] The human H460 lung cancer cell line used was obtained from the National Cancer Institute. (Brower et al., (1986) Cancer Res 46:798-806.) Xenografted H-460 tumors are sensitive to chemotherapeutics commonly used in treatment of lung cancer. […] A stock tumor was established by subcutaneously injecting a cell suspension into nude mice. The resulting tumor was maintained in nude mice subcutaneously as tumor stock prior to use. Tumor implantation was performed when the stock tumors were in log phase of growth. Before implantation, tumor tissue was harvested from stock mice and placed in RPMI-1640 medium. Necrotic tissues were dissected away and viable tissues were cut into 1-2 mm^2 pieces. Tumor fragments were then transplanted subcutaneously to the right flank of the nude mice. Treatment (administration of compounds of the present invention) was started when the inoculated tumors reached approximately 100 mm^3, and continued for four weeks. […] [table] Sizes of the primary tumors were measured through the skin with calipers once per week. […] Body weight of the mice in each group was also measured once per week during the experimental period. All animals were sacrificed following thirty-two days of treatment. Primary tumors were excised and weighed on an electronic balance. Blood samples were taken during terminal sacrifice and placed in microhematocrit tubes containing EDTA. Complete Blood Counts (CBC) and reticulocyte analysis were performed with the Cell Dyn 3700 analyzer (Abbott Diagnostics), as described by the manufacturer.
# [1] = test system: human H-460-GFP lung tumors; assay: Orthotopically implanted human H-460-GFP lung tumor mouse xenograft, survival and metastasis (Example 3); format: in vivo; settings: for Metastatic Incidence (proportion of animals exhibiting mediastinal lymph node metastasis): vehicle 9/10
# Description: To examine the effect of methods and compounds of the present invention in a metastatic model of tumor progression, compounds of the invention were administered to orthotopically implanted H-460-GFP xenografted animals. Tumor models employing surgical orthotopic implantation (SOI) into the organ of origin of the original tumor are regarded as representative of cancer progression and metastasis in humans. Orthotopic implantation of H-460 increases the rate of tumor metastasis.
# This experiment is carried out as described in Example 1 above, with the following modifications. To aid in identification and scoring of metastasis, the human H-460 lung cancer cell line was replaced by genetically-engineered tumors of GFP-transfected H-460 cells. 1-2 mm^3 H460-GFP lung tumor fragments were implanted by surgical orthotopic implantation (SOI) and sutured directly into lung tissue. (Yang et al., (1998) Cancer Res 58:4217-4221.) Dosing was initiated immediately after successful confirmation of tumor take by fluorescent GFP imaging (˜5 days following tumor implantation). Doxorubicin (DOX, 7.5 mg/kg, i.v. administration) was used as a chemotherapy control, and was administered on treatment days 3, 7, and 11.
# In addition to weekly caliper measurement of primary tumor size, GFP imaging was performed on animals to monitor primary tumor progression and metastasis, starting the first day of treatment. Study endpoints were reached when an average tumor size of 2 cc or three morbid mice appear in any one group, whichever occurs first, regardless of treatment duration. Each animal was checked daily for mortality or signs of morbidity. Morbid animals were frozen. All animals, including dead animals, were examined by GFP imaging for primary tumor and metastasis at necropsy. Imaging and caliper measurements were used to determine the effects of treatment. Primary tumors were excised, measured and weighed at necropsy. Blood samples were taken during terminal sacrifice and complete blood counts (CBC) and reticulocyte analysis were performed.
# Tumor metastasis is associated with increased morbidity and mortality in humans with metastatic cancer and in animal models of metastatic cancer. […] The increased morbidity and mortality were recorded and animals were preserved for subsequent necropsy. The study was terminated after >3 animals were found morbid in the vehicle group on treatment day 14, at which point the remaining animals were sacrificed to evaluate and compare tumor progression in the various treatment groups.
# To determine metastatic frequency, the thoracic and abdominal cavities of animals were examined by fluorescent imaging.
# CDKN1C gene expression = CDKN1C gene expression in Kelly neuroblastoma cells; format: cell-based; settings: Kelly, read-out: fold-increase in CDKN1C mRNA expression
# Description: To identify compounds useful in the methods of the present invention, the following studies were performed. The effect of compounds of the present invention on expression of various genes associated with anti-tumor activity (e.g., genes having anti-proliferative activity, genes having pro-apoptotic activity, genes having anti-tumor activity, etc.). In these experiments, the effect of compounds on BNIP3, BNIP3L, NDRG1, CDKN1C, and REDD1/RTP801 gene expression in various types of cultured tumor cells line was examined, including Hep3B cells (human hepatocellular carcinoma), Kelly neuroblastoma cells, and MCF7 cells (human breast cancer)
# The effects of various compounds of the present invention on the expression of genes associated with tumor growth and progression were examined in Kelly neuroblastoma cells as follows. Kelly neuroblastoma cells were grown in RPMI media. For each experiment, Kelly neuroblastoma cells were added to 96-well tissue culture plates (approximately 40,000 cells per well) such that the plated cells reached confluence the following day. On the following day, the cells were washed and the media replaced with RPMI containing 0.5% FBS. Various compounds of the present invention were added to the cultured cells to a final concentration of 20 μM, and the cells cultured for an additional 20-24 hours. DMSO (0.5%) was added to control cell cultures.
# RNA was isolated from the Kelly neuroblastoma cells using a commercial kit and used for the preparation of cDNA. BNIP3, CDKN1C, and 18S RNA levels were measured using commercial kits (18S, Applied Biosystems cat#4319413E); BNIP3, Applied Biosystems cat#HS00969293 MH). RNA levels for BNIP3 and CDKN1C were normalized to that of 18S RNA and is presented as fold-change compared to that observed in DMSO control cultures. Kelly cell NDRG1 and BNIP3L mRNA levels were measured by Affymetrix microarray in a separate study. Cells were harvested after 6 hours incubation with 20 μM test compound or DMSO (0.5%) as control. RNA was isolated and labeled probes were prepared and hybridized to U133 Plus 2.0 Affymetrix microarrays. Changes in gene expression levels are presented as fold change compared to that of control (0.5% DMSO-treated) cultures.
Compound,"mean tumor volume (human H-460 lung tumors; day 0, 20 mg/kg PO)","mean tumor volume (human H-460 lung tumors; day 10, 20 mg/kg PO)","mean tumor volume (human H-460 lung tumors; day 17, 20 mg/kg PO)","mean tumor volume (human H-460 lung tumors; day 24, 20 mg/kg PO)","mean tumor volume (human H-460 lung tumors; day 31, 20 mg/kg PO)",Mean Tumor Weight at Necropsy (human H-460 lung tumors; 20 mg/kg PO),Metastatic Incidence (proportion of animals exhibiting mediastinal lymph node metastasis) ([1]; 20 mg/kg),"proportion of surviving animals ([1]; treatment day 9, 20 mg/kg)","proportion of surviving animals ([1]; treatment day 11, 20 mg/kg)","proportion of surviving animals ([1]; treatment day 12, 20 mg/kg)","proportion of surviving animals ([1]; treatment day 13, 20 mg/kg)","proportion of surviving animals ([1]; treatment day 14, 20 mg/kg)",fold induction at 20 µM (CDKN1C gene expression),other results
"O=C(O)CNC(=O)c1nc(Cl)c2ccccc2c1O [Compound A, [(1-Chloro-4-hydroxy-isoquinoline-3-carbonyl)-amino]-acetic acid]",88 mm^3,730 mm^3,1376 mm^3,2499** mm^3,2670** mm^3,3.05 g,8/10,10/10,10/10,10/10,8/10,8/10,,"mean tumor volume (human H-460 lung tumors; day 0, 60 mg/kg PO): 105 mm^3; mean tumor volume (human H-460 lung tumors; day 10, 60 mg/kg PO): 895 mm^3; mean tumor volume (human H-460 lung tumors; day 17, 60 mg/kg PO): 1742 mm^3; mean tumor volume (human H-460 lung tumors; day 24, 60 mg/kg PO): 2662* mm^3; mean tumor volume (human H-460 lung tumors; day 31, 60 mg/kg PO): 2968* mm^3; Mean Tumor Weight at Necropsy (human H-460 lung tumors; 60 mg/kg PO): 3.09 g; Metastatic Incidence (proportion of animals exhibiting mediastinal lymph node metastasis) ([1]; 60 mg/kg): 7/10; proportion of surviving animals ([1]; treatment day 9, 60 mg/kg): 10/10; proportion of surviving animals ([1]; treatment day 11, 60 mg/kg): 10/10; proportion of surviving animals ([1]; treatment day 12, 60 mg/kg): 9/10; proportion of surviving animals ([1]; treatment day 13, 60 mg/kg): 9/10; proportion of surviving animals ([1]; treatment day 14, 60 mg/kg): 9/10"
"C[C@H](NC(=O)c1ncc2cc(Oc3ccccc3)ccc2c1O)C(=O)O [Compound B, (S)-2-[(4-Hydroxy-7-phenoxy-isoquinoline-3-carbonyl)-amino]-propionic acid]",108 mm^3,914 mm^3,1858 mm^3,3074 mm^3,3229 mm^3,3.60 g,,,,,,,91,"mean tumor volume (human H-460 lung tumors; day 0, 6 mg/kg PO): 101 mm^3; mean tumor volume (human H-460 lung tumors; day 10, 6 mg/kg PO): 884 mm^3; mean tumor volume (human H-460 lung tumors; day 17, 6 mg/kg PO): 1949 mm^3; mean tumor volume (human H-460 lung tumors; day 24, 6 mg/kg PO): 3131 mm^3; mean tumor volume (human H-460 lung tumors; day 31, 6 mg/kg PO): 3343 mm^3; Mean Tumor Weight at Necropsy (human H-460 lung tumors; 6 mg/kg PO): 4.27 g"
"COc1ccc(Oc2ccc3c(O)c(C(=O)NCC(=O)O)ncc3c2)cc1 [Compound C, {[4-Hydroxy-7-(4-methoxy-phenoxy)-isoquinoline-3-carbonyl]-amino}-acetic acid]",91 mm^3,638 mm^3,1365 mm^3,2239** mm^3,2373** mm^3,2.35 g,5/10,10/10,10/10,9/10,8/10,8/10,49,
"Cc1nc(C(=O)NCC(=O)O)c(O)c2ccc(Oc3ccccc3)cc12 [Compound D, [(4-Hydroxy-1-methyl-7-phenoxy-isoquinoline-3-carbonyl)-amino]-acetic acid]",,,,,,,9/10,10/10,9/10,9/10,9/10,9/10,382,
"O=C(O)CNC(=O)c1ncc2cc(Oc3ccc(F)cc3)ccc2c1O [Compound E, {[7-(4-fluoro-phenoxy)-4-hydroxy-isoquinoline-3-carbonyl]-amino}-acetic acid]",,,,,,,,9/10,9/10,9/10,8/10,8/10,184,

# From patent publication US8530404B2, “Compounds and methods for treatment of cancer” (FibroGen, Inc., priority 2005, dated 2013)
